{"source": "patent US9353088B2", "about": "“Crystalline pharmaceutical and methods of preparation and use thereof” (SARcode Bioscience Inc., priority 2009, dated 2016)", "key": {"[1]": {"assay": "Tear PK after single topical ocular instillation", "conditions": "single topical ocular instillation, 0.1, 1.0 or 3.0%"}, "[2]": {"conditions": "dog, in vivo"}, "[3]": {"assay": "Cardiovascular effects in conscious telemetry-instrumented dogs, IV bolus", "format": "in vivo, dogs (beagles)", "conditions": "IV bolus injection"}, "[4]": {"assay": "Plasma PK after single topical ocular instillation", "conditions": "post-dose"}, "[5]": {"assay": "Pilot mini-pig dermal study", "format": "in vivo, mini-pigs", "conditions": "DMSO, gel, ointment, lotion at 1%, dermal TID for 7 days"}, "[6]": {"assay": "Pilot ocular tolerance of topically administered compound in dogs-PK", "format": "in vivo", "conditions": "up to 10% strength at 3 doses/day"}, "[7]": {"assay": "13-week ocular toxicity study with 4-week recovery", "conditions": "13-week ocular (3%)"}, "[8]": {"assay": "13-week IV toxicity study with 4-week recovery", "format": "in vivo, rats", "conditions": "Day 1"}, "[9]": {"assay": "Plasma PK after single IV bolus dose", "format": "in vivo", "conditions": "rat, rats, read-out: clearance rate", "excerpt": "The systemic clearance rate can be calculated by various means known in the art. For example, the clearance rate for a drug may be calculated from an analysis of the drug concentration time profile for the rate of disappearance of a drug from the plasma following administration of the formulation, for example after a single intravenous injection. One of skill in the art could use a variety of methods to calculate and determine systemic clearance rates. For example, the rate of disappearance may be measured by analysis of the absorption, distribution, metabolism and excretion of a radiolabelled form of a drug or other means of measuring the level of drug in plasma, such as gas chromatography (Sapirstein et al., 1955, Am. Jour. Physiol., Vol. 181, pp. 330; U.S. Pat. No. 4,908,202), liquid chromatography-mass spectrometry methods (LCMS) or HPLC methods. As another example, the clearance rate may be calculated by introducing the formulation to the subject by continuous intravenous infusion until an equilibrium is reached at which the plasma level of the substance (as determined by analysis of plasma samples) is steady, at which point the infusion rate is equal to the rate of clearance from plasma (Earle et al., 1946, Proc. Soc. Exp. Biol. Med., Vol. 62, pp. 262 ff.) […]"}, "[10]": {"assay": "Phase 1 clinical trial of Ophthalmic Solution, safety and tolerability", "format": "in vivo, human", "excerpt": "The objectives of the trial were to measure safety and tolerability, and pharmacokinetics in tear and plasma. The dosing schedule (OU; Oculus Uterque (each eye or both eyes)) was divided into 3 periods, each separated by a 72-hour wash out interval: once/day×1 day (drug one eye; placebo fellow eye), twice/day×10 days, and thrice/day×10 days, 14-day observation. Slit lamp examination of the eye, BCVA (Best Corrected Visual Acuity), STTs (Schirmer Tear Test), TBUT (Tear Break-Up Time), IOP (Intraocular pressure) were assessed at screening and the beginning and end of each period. For each cohort, masked safety data was reviewed by a Safety Committee prior to allowing dose escalation of the next cohort. A total of 2856 doses (102 drops/subject) were administered over 1148 total subject study days (41 study days/subject) in 56 eyes. All subjects in all cohorts completed the study, and no study drug doses were missed."}, "[11]": {"assay": "Single dose ocular tolerance", "conditions": "single dose ocular tolerance (10%)"}, "[12]": {"assay": "Respiratory function, single IV bolus, head-out plethysmograph", "format": "in vivo, rats", "conditions": "any dose"}, "[13]": {"assay": "CNS effects, single bolus IV injection", "format": "in vivo, rats", "conditions": "10.0 mg/kg IV, 1 minute to 6 hours postdose, 2/6 animals", "excerpt": "No effect on any other parameters was observed."}, "[14]": {"assay": "In-vitro percutaneous absorption following topical application"}, "[15]": {"conditions": "rabbit, in vivo"}}, "note": "Like-named read-outs stand apart in the source and are kept apart here."}
{"smiles": "CS(=O)(=O)c1cccc(C[C@H](NC(=O)c2c(Cl)cc3c(c2Cl)CCN(C(=O)c2ccc4ccoc4c2)C3)C(=O)O)c1", "note": "[Compound of Formula I]", "values": [{"measurement": "time to maximal mean tear concentration", "setting": "[1]", "result": "≤ 30", "unit": "min"}, {"measurement": "level in vitreous fluid", "setting": "[2]", "result": "not detected"}, {"measurement": "effects on electrocardiography or hemodynamic parameters", "setting": "[3]", "result": "No effects"}, {"measurement": "time of maximum plasma concentration", "setting": "[4]", "result": "about 0.25 hrs"}, {"measurement": "toxicity", "setting": "[5]", "result": "No toxicity was reported"}, {"measurement": "ocular safety and tolerability", "setting": "[6]", "result": "safe and well tolerated"}, {"measurement": "NOAEL", "setting": "[7]", "result": 1.05, "unit": "mg/eye/3× per day"}, {"measurement": "Cmax", "setting": "[8]; daily IV bolus 10 mg/kg", "result": 1045.3, "unit": "ng/mL"}, {"measurement": "AUC0-n", "setting": "[8]; daily IV bolus 30 mg/kg", "result": 2345.5, "unit": "ng·h/mL"}, {"measurement": "Cmax", "setting": "[8]; daily IV bolus 30 mg/kg", "result": 5117.3, "unit": "ng/mL"}, {"measurement": "clearance", "setting": "[9]", "result": "> 100", "unit": "mL/min/kg"}, {"measurement": "adverse events considered related to administration", "setting": "[10]; any dose strength (0.1-5%) or dose regimen, healthy adults", "result": "No deaths, discontinuations, serious or severe ocular or non-ocular AEs"}, {"measurement": "total lymphocyte, CD3, CD4, CD8 cell counts", "setting": "[10]; throughout the trial", "result": "no evidence of lymphocyte or neutrophil suppression"}, {"measurement": "overall safety and tolerability", "setting": "[10]; topical ocular instillation, dose strengths up to 5% TID", "result": "safe and well-tolerated"}, {"measurement": "NOAEL", "setting": "[11]", "result": 3.5, "unit": "mg/eye/3× per day"}, {"measurement": "respiratory function (tidal volume, respiration rate, minute volume)", "setting": "[12]", "result": "No adverse changes in respiratory function or adverse effects"}, {"measurement": "CNS observations", "setting": "[13]", "result": "Transient miosis"}, {"measurement": "dose penetration into dermis", "setting": "[14]; determined using [14C]-compound", "result": "2-4%"}, {"measurement": "compound level in dermis", "setting": "[14]; skin transport studies, microtomed human skin, 1% (w/w) prototypes", "result": "greater than 10 micromolar"}, {"measurement": "level in vitreous fluid", "setting": "[15]", "result": "not detected"}]}
